Experimental findings from US20230014907A1, “INHIBITORS OF APOL1 AND METHODS OF USING SAME” (Vertex Pharmaceuticals Incorporated, priority 2020, published 2023) are described below.

SMILES strings stand for the structures. pIC50: −log10 of the molar value.

The target in the experiment is T1, G1 APOL1 (Homo sapiens, UniProt O14791, I384M/S342G).
T1 construct: expressed in transfected cells
T1 sequence (O14791 28-398 S342G/I384M): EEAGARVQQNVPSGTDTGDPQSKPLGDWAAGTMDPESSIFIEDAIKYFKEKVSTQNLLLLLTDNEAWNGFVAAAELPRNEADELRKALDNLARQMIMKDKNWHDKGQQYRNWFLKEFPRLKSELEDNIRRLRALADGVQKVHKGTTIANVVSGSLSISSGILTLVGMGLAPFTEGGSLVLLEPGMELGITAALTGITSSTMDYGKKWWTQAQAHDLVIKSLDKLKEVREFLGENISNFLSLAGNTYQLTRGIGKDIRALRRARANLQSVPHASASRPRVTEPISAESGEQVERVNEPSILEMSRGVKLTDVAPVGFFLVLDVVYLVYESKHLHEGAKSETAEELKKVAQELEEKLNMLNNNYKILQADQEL
Description: Acute APOL1 Thallium Assay with Inducible Stable Clones of HEK 293 Cells. It is filed as cell-based. The following applies: HEK 293 inducible stable clones, G1 APOL1; read-out: Thallium Assay (IC50). A digest of the protocol: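 Pore activity was read as the fluorescence increase from Tl+ entering cells loaded with an AM-ester thallium indicator dye. The cells were tetracycline-inducible HEK293 T-Rex expressing G1 APOL1 (clone DC3.25), induced when plated at 26000 per well and incubated at 37° C.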

A word on the pIC50: it is the IC50 on a negative log10 scale, so that one unit is a factor of ten.

In the case of `O=C(NCCc1c(-c2ccc(F)cc2)[nH]c2c(F)cc(F)cc12)NCC1CCOCC1` [Compound 291], the pIC50 was below 6.00.
Next, `CN(C)S(=O)(=O)NCCc1c(-c2ccc(F)cc2)[nH]c2c(F)cc(F)cc12` [Compound 425]: below 6.00.
For the molecule `C[C@H](O)CNC(=O)NCCc1c(-c2ccc(F)cc2)[nH]c2c(F)cc(F)cc12` [Compound 284], the pIC50 was below 6.00.
As to `O=C(CCCc1c(-c2ccc(F)cc2)[nH]c2c(F)cc(F)cc12)NCC1CNC(=O)C1` (centres unmarked) [Compound 252], the pIC50 is below 6.00.
As to `O=C(NCCc1c(-c2ccc(F)cc2)[nH]c2c(F)cc(F)cc12)C1(O)COC1` [Compound 342], the pIC50 was 6.00 to 6.60.
On to `O=C(NCCO)NCCc1c(-c2ccc(F)cc2)[nH]c2c(F)cc(F)cc12` [Compound 286], for which the negative-log IC50 (pIC50) is below 6.00.
The figure for `O=C(NCCc1c(-c2ccc(F)cc2)[nH]c2c(F)cc(F)cc12)c1cnc(C(F)(F)F)s1` [Compound 367] is below 6.00.
For the molecule `NCC(=O)NCCc1c(-c2ccc(F)cc2)[nH]c2c(F)cc(F)cc12` [Compound 366], the pIC50 is 6.00 to 6.60.
As to `CCOCCNC(=O)OCCc1c(-c2ccc(F)cc2)[nH]c2c(F)cc(F)cc12` [Compound 455], the pIC50 was 6.00 to 6.60.
On to `C[C@H](CO)NC(=O)NCCc1c(-c2ccc(F)cc2)[nH]c2c(F)cc(F)cc12` [Compound 282], for which the negative-log IC50 (pIC50) was 6.00 to 6.60.
Next, `C=CC(=O)NCCc1c(-c2ccc(F)cc2)[nH]c2c(F)cc(F)cc12` [Compound 417]: below 6.00.
Regarding `Cc1cc(CNC(=O)OCCc2c(-c3ccc(F)cc3)[nH]c3c(F)cc(F)cc23)on1` [Compound 492], the pIC50 was below 6.00.
Consider `CC(CCO)NC(=O)OCCc1c(-c2ccc(F)cc2)[nH]c2c(F)cc(F)cc12` (racemic) [Compound 457], for which the pIC50 was 6.00 to 6.60.
Next, `O=C(NCCc1c(-c2ccc(F)cc2)[nH]c2c(F)cc(F)cc12)c1cccnc1` [Compound 401]: below 6.00; `C[C@@H](CO)NC(=O)OCCc1c(-c2ccc(F)cc2)[nH]c2c(F)cc(F)cc12` [Compound 440]: above 6.60; `CC(C#N)(CO)NC(=O)OCCc1c(-c2ccc(F)cc2)[nH]c2c(F)cc(F)cc12` (racemic) [Compound 461]: 6.00 to 6.60.
The figure for `Cn1cnc(CNC(=O)CCCc2c(-c3ccc(F)cc3)[nH]c3c(F)cc(F)cc23)c1` [Compound 244] is below 6.00.
Next, `O=C(NCCc1c(-c2ccc(F)cc2)[nH]c2c(F)cc(F)cc12)c1ccncc1` [Compound 402]: below 6.00; `O=C(NCCc1c(-c2ccc(F)cc2)[nH]c2c(F)cc(F)cc12)C1CNC1=O` (centres unmarked) [Compound 350]: below 6.00.
Turning to `CS(=O)(=O)NCC(=O)NCCc1c(-c2ccc(F)cc2)[nH]c2c(F)cc(F)cc12` [Compound 321], the pIC50 is below 6.00.
The figure for `O=C(CCc1c(-c2ccc(F)cc2)[nH]c2c(F)cc(Cl)cc12)NC1(CO)CCC1` [Compound 194, 3-[5-chloro-7-fluoro-2-(4-fluorophenyl)-1H-indol-3-yl]-N-[1-(hydroxymethyl)cyclobutyl]propanamide] is 6.00 to 6.60; for `O=C(NCCc1c(-c2ccc(F)cc2)[nH]c2c(F)cc(F)cc12)c1cn[nH]c1` [Compound 352] it is below 6.00; for `O=C1CC(C(=O)NCCc2c(-c3ccc(F)cc3)[nH]c3c(F)cc(F)cc23)C(=O)N1` (centres unmarked) [Compound 333] it is above 6.60.
In the case of `C[C@H](CO)NC(=O)CCCc1c(-c2ccc(F)cc2)[nH]c2c(F)cc(F)cc12` [Compound 241], the pIC50 is 6.00 to 6.60.
For the molecule `CC1(C(=O)NCCc2c(-c3ccc(F)cc3)[nH]c3c(F)cc(F)cc23)CCC(=O)NC1` (centres unmarked) [Compound 319], the pIC50 is below 6.00.
Consider `Nc1ncc(C(=O)NCCc2c(-c3ccc(F)cc3)[nH]c3c(F)cc(F)cc23)s1` [Compound 328], for which the pIC50 was below 6.00.
